Source: patent US7544814B2, “[3.2.0] Heterocyclic compounds and methods of using the same” (Nereus Pharmaceuticals, Inc., priority 2004, dated 2009)
Values joined by “and” are separate entries in the source; they are usually repeats but may differ in a detail not shown here. Identical values can stand only once. Like-named read-outs stand apart in the source and are kept apart here.

Experiments:
PC-3 = assay: Cell growth inhibition (resazurin), PC-3; assay type: cell-based, human; settings: from EC50 values
MES-SA = assay: Cell growth inhibition (resazurin), MES-SA; assay type: cell-based, human; settings: for cytotoxic activity against MES-SA, in words: from EC50 values
MES-SA/Dx5 = assay: Cell growth inhibition (resazurin), multidrug resistant MES-SA/Dx5; assay type: cell-based, human; settings: from EC50 values
HL-60 = assay: Cell growth inhibition (resazurin), HL-60; assay type: cell-based, human; settings: for EC50: Table 4, 48 hours drug exposure; for cytotoxic activity against HL-60, in words: from EC50 values
HL-60/MX2 = assay: Cell growth inhibition (resazurin), multidrug resistant HL-60/MX2; settings: from EC50 values
Experimental: Concentrations ranging from 6.32 μM to 2 nM were tested for II-2 and II-4.
HL-60/MX2 is a multidrug resistant tumor cell line derived from the human promyelocytic leukemia cell line, HL-60 and expresses reduced topoisomerase II activity. […] Mitoxantrone, the topoisomerase II targeting agent was included as a control.

NF-κB = assay: NF-κB-mediated luciferase reporter gene assay, HEK293 NF-κB/Luc cells, TNF-α stimulation; assay type: cell-based, human; settings: for EC50: 1 hr pretreatment, TNF-α 6 hr; for effect on luciferase activity upon TNF-α stimulation, in words: pretreatment of NF-κB/Luc 293 cells
Experimental: The HEK293 NF-κB/luciferase reporter cell line is a derivative of the human embryonic kidney cell line (ATCC; CRL-1573) and carries a luciferase reporter gene under the regulation of 5× NF-κB binding sites. […] When performing the luciferase assay, the DMEM basal medium was replaced with phenol-red free DMEM basal medium and the G418 was omitted.
For NF-κB-mediated luciferase assays, HEK293 NF-κB/luciferase cells were seeded at 1.5×10^4 cells/well in 90 μl phenol-red free DMEM complete medium into Corning 3917 white opaque-bottom tissue culture plates. For Formula II-2, Formula II-4, Formula II-5A, and Formula II-18, a 400 μM starting dilution was made in 100% DMSO and this dilution was used to generate a 8-point half log dilution series. […] For Formula II-20, a 2.5 mM or 8 mM starting solution was made in 100% DMSO and the final test concentrations ranged from 6.3 μM to 2.0 nM or 20 μM to 6.3 nM, respectively. The plates were returned to the incubator for 1 hour. After 1 hr pretreatment, 10 μl of a 50 ng/ml TNF-α solution, prepared in the phenol-red free DMEM medium was added, and the plates were incubated for an additional 6 hr.
At the end of the TNF-α stimulation, 100 μl of Steady Lite HTS luciferase reagent (Packard Bioscience) was added to each well and the plates were left undisturbed for 10 min at room temperature before measuring the luciferase activity. The relative luciferase units (RLU) were measured by using a Fusion microplate fluorometer (Packard Bioscience).

U266 [1] = tested on: U266
B16-F10 [2] = tested on: B16-F10
U266 [3] = assay: Cell growth inhibition (resazurin), U266; settings: for EC50: 48 hours drug exposure
HT-29 = assay: Cell growth inhibition (resazurin), HT-29; settings: for cytotoxicity against HT-29, in words: from EC50 values
OVCAR-3 = assay: Cell growth inhibition (resazurin), OVCAR-3
B16-F10 [4] = assay: Cell growth inhibition (resazurin), B16-F10; settings: 48 hours drug exposure, mean ± SD where n≥3
NCI-H292 = assay: Cell growth inhibition (resazurin), NCI-H292; settings: from EC50 values
RPMI 8226 = assay: Cell growth inhibition (resazurin), RPMI 8226; settings: for EC50: 48 hours drug exposure; for cytotoxicity against RPMI 8226, in words: from EC50 values
MDA-MB-231 = assay: Cell growth inhibition (resazurin), MDA-MB-231; settings: for EC50: Homo sapiens, MDA-MB-231, 48 h, read-out: EC50 against MDA-MB-231; for cytotoxicity against MDA-MB-231, in words: from EC50 values
[5] = target: T1, caspase-like activity of purified rabbit muscle 20S proteasome (Oryctolagus cuniculus, UniProt A0A5F9DQW2); assay: In vitro inhibition of 20S proteasome caspase-like activity (Z-LLE-AMC)
T1 sequence (A0A5F9DQW2 1-212): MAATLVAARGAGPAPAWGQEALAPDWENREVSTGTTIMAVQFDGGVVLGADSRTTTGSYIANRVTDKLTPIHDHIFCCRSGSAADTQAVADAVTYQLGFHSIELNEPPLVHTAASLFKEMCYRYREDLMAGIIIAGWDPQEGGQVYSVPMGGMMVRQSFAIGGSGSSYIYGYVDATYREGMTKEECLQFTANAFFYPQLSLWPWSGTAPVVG

[6] = target: T2, trypsin-like activity of purified rabbit muscle 20S proteasome (Oryctolagus cuniculus, UniProt G1SWK8); assay: In vitro inhibition of 20S proteasome trypsin-like activity (Boc-LRR-AMC)
T2 sequence (G1SWK8 1-271): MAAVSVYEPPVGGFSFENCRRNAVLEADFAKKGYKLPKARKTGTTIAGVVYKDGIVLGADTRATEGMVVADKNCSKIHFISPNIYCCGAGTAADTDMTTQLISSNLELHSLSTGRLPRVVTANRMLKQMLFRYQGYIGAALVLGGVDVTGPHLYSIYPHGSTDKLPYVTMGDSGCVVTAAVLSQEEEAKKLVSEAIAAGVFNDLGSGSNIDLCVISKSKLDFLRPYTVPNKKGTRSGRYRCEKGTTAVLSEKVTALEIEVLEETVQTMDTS

[7] = target: T3, chymotrypsin-like activity of purified rabbit muscle 20S proteasome (Oryctolagus cuniculus, UniProt G1T4Q9); assay: In vitro inhibition of 20S proteasome chymotrypsin-like activity (suc-LLVY-AMC)
T3 sequence (G1T4Q9 1-263): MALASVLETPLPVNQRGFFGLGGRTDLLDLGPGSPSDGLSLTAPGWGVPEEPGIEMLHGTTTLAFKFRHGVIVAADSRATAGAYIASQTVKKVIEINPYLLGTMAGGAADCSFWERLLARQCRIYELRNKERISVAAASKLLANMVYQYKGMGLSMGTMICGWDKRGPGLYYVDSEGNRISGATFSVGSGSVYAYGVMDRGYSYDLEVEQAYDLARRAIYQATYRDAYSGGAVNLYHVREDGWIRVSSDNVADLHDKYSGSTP

[8] = target: T2, trypsin-like activity of purified rabbit muscle 20S proteasome; assay: biochemical
[9] = Homo sapiens, RPMI-8226, 48 h, read-out: RPMI 8226 EC50, Table 2, mean ± SD where n≥3
[10] = read-out: RPMI 8226 EC50, Table 2, mean ± SD where n≥3
[11] = EC50 values, chymotrypsin-like activity

SMILES: C[C@@]12OC(=O)[C@]1([C@@H](O)C1CCCCC1)NC(=O)[C@@H]2CCCl [Formula II-2]
- cytotoxicity against PC-3, in words (PC-3): cytotoxic
- cytotoxic activity against MES-SA, in words (MES-SA): cytotoxic activity
- cytotoxic activity against MES-SA/Dx5, in words (MES-SA/Dx5): cytotoxic activity
- EC50 (HL-60; Homo sapiens, HL-60, 48 h): 237 nM
- EC50 (HL-60): 176 nM
- cytotoxic activity against HL-60, in words (HL-60): retained cytotoxic activity
- cytotoxic activity against HL-60/MX2, in words (HL-60/MX2): retained cytotoxic activity
- EC50 (NF-κB; Homo sapiens, HEK293, read-out: EC50, NF-κB-mediated luciferase reporter gene assay, Table 5, values in nM): 71 ± 20 nM
- effect on luciferase activity upon TNF-α stimulation, in words (NF-κB): dose-dependent decrease
- cytotoxicity against U266, in words (U266 [1]): cytotoxic
- cytotoxicity against B16-F10, in words (B16-F10 [2]): cytotoxic
- EC50 (U266 [3]; Homo sapiens, U-266, 48 h, read-out: U266 EC50, Table 2): 39 nM
- EC50 (U266 [3]; read-out: U266 EC50, Table 2): 32 nM
- EC50 (HT-29; Homo sapiens, HT-29, 48 h, read-out: EC50 against HT-29): 129 ± 21 nM
- cytotoxicity against HT-29, in words (HT-29): cytotoxic
- cytotoxicity against OVCAR-3, in words (OVCAR-3; from EC50 values): cytotoxic
- EC50 (B16-F10 [4]; Mus musculus, B16-F10, 48 h, read-out: EC50 against B16-F10, Table 1): 194 nM
- EC50 (B16-F10 [4]; read-out: EC50 against B16-F10, Table 1): 180 nM
- cytotoxicity against NCI-H292, in words (NCI-H292): cytotoxic
- EC50 (RPMI 8226; Homo sapiens, RPMI-8226, 48 h, read-out: EC50 against RPMI 8226, Table 1): 49 nM
- EC50 (RPMI 8226; [9]): 49 nM
- cytotoxicity against RPMI 8226, in words (RPMI 8226): cytotoxic
- EC50 (RPMI 8226; [10]): 45 nM
- EC50 (MDA-MB-231): 121 ± 23 nM
- cytotoxicity against MDA-MB-231, in words (MDA-MB-231): cytotoxic
- EC50 ([5]; EC50 Caspase-like, Table 6, values in μM): 1.3 µM and 1.7 µM
- EC50 ([5]; EC50 values, caspase-like activity, range in mixed units, summary of Table 6, range from nM to μM): 0.956 to 8.7 µM
- inhibition of the trypsin-like activity of the 20S proteasome, in words ([6]; under the conditions tested): able to inhibit
- EC50 [7, 11]: 13 to 88 nM
- EC50 ([7]; read-out: EC50 Chymotrypsin-like): 19 nM

SMILES: C[C@@]12OC(=O)[C@]1([C@@H](O)C1CCCCC1)NC(=O)[C@@H]2CCBr [Formula II-4]
- cytotoxicity against PC-3, in words (PC-3): cytotoxic
- EC50 (MES-SA; Homo sapiens, MES-SA, 48 h, Table 3, 48 hours drug exposure): 140 nM
- cytotoxic activity against MES-SA, in words (MES-SA): cytotoxic activity
- EC50 (HL-60; Homo sapiens, HL-60, 48 h): 143 nM
- cytotoxic activity against HL-60, in words (HL-60): retained cytotoxic activity
- cytotoxic activity against HL-60/MX2, in words (HL-60/MX2): retained cytotoxic activity
- EC50 (NF-κB; Homo sapiens, HEK293, Table 5, values printed in nM, read-out: EC50, NF-κB-mediated luciferase reporter gene assay): 67 nM
- effect on luciferase activity upon TNF-α stimulation, in words (NF-κB): dose-dependent decrease
- EC50 (NF-κB; read-out: EC50, NF-κB-mediated luciferase reporter gene assay, Table 5, values in nM): 88 nM
- cytotoxicity against B16-F10, in words (B16-F10 [2]): cytotoxic
- EC50 [8]: 107 nM
- cytotoxicity against U266, in words (U266 [3]; from EC50 values): cytotoxic
- EC50 (U266 [3]; read-out: U266 EC50, Table 2): 34 nM
- cytotoxicity against HT-29, in words (HT-29): cytotoxic
- EC50 (OVCAR-3; Homo sapiens, OVCAR-3, 48 h, read-out: EC50 against OVCAR-3): > 6320 nM
- cytotoxicity against NCI-H292, in words (NCI-H292): cytotoxic
- EC50 (RPMI 8226; [9]): 57 nM
- cytotoxicity against RPMI 8226, in words (RPMI 8226): cytotoxic
- EC50 (RPMI 8226; [10]): 51 nM
- EC50 (MDA-MB-231): 114 ± 4 nM
- cytotoxicity against MDA-MB-231, in words (MDA-MB-231): cytotoxic
- EC50 ([5]; EC50 Caspase-like, Table 6, values in nM): 0.85 µM and 0.637 µM
- EC50 ([5]; EC50 values, caspase-like activity, summary of Table 6): 0.213 to 0.85 µM
- inhibition of the trypsin-like activity of the 20S proteasome, in words [6]: able to inhibit
- EC50 ([6]; read-out: EC50 Trypsin-like): 110 nM
- EC50 ([7]; EC50 Chymotrypsin-like, Table 6, values in nM): 13 nM
- EC50 [7, 11]: 13 to 88 nM
